Patent US20130345199A1, “1-[M-CARBOXAMIDO(HETERO)ARYL-METHYL]-PIPERIDINE-4-CARBOXAMIDE DERIVATIVES” (Actelion Pharmaceuticals Ltd., priority 2012, published 2013)

Biological target: T1, CXCR7 (Homo sapiens, UniProt P25106)
T1 construct: host or cells: CHO-K1 (PathHunter CXCR7 b-arrestin cell line, stably transfected)
Experiment: PathHunter CHO-K1 CXCR7 b-arrestin assay (agonistic activity)
Type: cell-based
Conditions: PathHunter CHO-K1 CXCR7 b-arrestin cell line, 90 minutes at 37° C.
Procedure: The […] receptor and CXCR7 agonistic activities of the compounds of formula (I) are determined in accordance with the following experimental method.
The assay is using the PathHunter™ CHO-K1 CXCR7 b-arrestin cell line from DiscoverX. The system is based on the Enzyme Fragment Complementation Technology. Two complementing fragments of the b-galactosidase enzyme are expressed within stably transfected cells. The larger portion of b-gal, termed EA for Enzyme Acceptor, is fused to the C-terminus of b-arrestin 2. The smaller fragment, termed ProLink™ tag, is fused to CXCR7 at the C-terminus. Upon activation, b-arrestin is recruited which forces the interaction of ProLink and EA, allowing complementation of the two fragments of b-gal and the formation of a functional enzyme which is capable of hydrolysing the substrate and generating a chemiluminescent signal.
CHO-K1 CXCR7 b-arrestin cells are detached from culture dishes with a cell dissociation buffer (Invitrogen, #13151-014) and collected in growing medium (F12HAMS 90% (v/v)/FCS 10% (v/v), Penicilin/streptomycin 1% (v/v)). 5000 cells per well (in 20 μl) are seeded in a 384 well plate (white-walled, clear bottom; BD Falcon #353274). The plate is incubated at 37° C./5% CO2 for 24 hours. Medium is then replaced by […] (Invitrogen #31985) for 3 to 4 hours. Test compounds are dissolved at 10 mM in DMSO and serially diluted in DMSO to 200× of the final concentration for dose response curves. Compounds are then diluted 1:33.3 in HBSS1X. 5 μl/well of HBSS1X/20 mM HEPES/0.2% BSA are added to the assay plate followed by addition of 5 μl/well of diluted compounds. CXCL12 (Peprotech #300-28A) may be used as a reference agonist. The plate is incubated for 90 minutes at 37° C. 12 μl of detection reagent (Path Hunter Detection Kit, DiscoveRx, #93-0001) is transferred to the assay plate and to the plate is incubated for 1 hour at room temperature. Luminescent signal is read in a microplate reader (FLUOstar Optima, bmg). The calculated EC50 values may fluctuate depending on the daily cellular assay performance. Fluctuations of this kind are known to those skilled in the art.

T1 sequence (P25106 whole entry): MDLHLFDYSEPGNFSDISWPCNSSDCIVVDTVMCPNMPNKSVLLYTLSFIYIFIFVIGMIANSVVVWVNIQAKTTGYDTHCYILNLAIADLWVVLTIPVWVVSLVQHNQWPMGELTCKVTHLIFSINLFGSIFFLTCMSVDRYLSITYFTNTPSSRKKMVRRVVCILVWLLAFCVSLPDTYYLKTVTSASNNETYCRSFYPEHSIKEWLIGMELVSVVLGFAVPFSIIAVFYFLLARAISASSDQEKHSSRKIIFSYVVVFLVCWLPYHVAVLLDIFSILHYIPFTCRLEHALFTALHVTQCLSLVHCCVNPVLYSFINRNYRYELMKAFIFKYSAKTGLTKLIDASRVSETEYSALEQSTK

Row | Compound | EC50
1 | CC(C)(C)NC(=O)C1CCN(Cc2cc(NC(=O)Cc3ccccc3Cl)cs2)CC1 [Example 3.011, 1-{4-[2-(2-Chloro-phenyl)-acetylamino]-thiophen-2-ylmethyl}-piperidine-4-carboxylic acid tert-butylamide] | 28 nM
2 | Cc1cncc(C(=O)Nc2cccc(CN3CCC(C(=O)N4CCC(F)(F)C4)CC3)c2)c1 [Example 2.054] | 109 nM
3 | COCC(C)NC(=O)C1CCN(Cc2cccc(NC(=O)c3cccc(C(F)(F)F)n3)c2)CC1 (centres unmarked) [Example 2.092] | 3 nM
4 | CC(C)(C)NC(=O)C1CCN(Cc2csc(NC(=O)Cc3ccccc3Cl)c2)CC1 [Example 3.010, 1-{5-[2-(2-Chloro-phenyl)-acetylamino]-thiophen-3-ylmethyl}-piperidine-4-carboxylic acid tert-butylamide] | 41 nM
5 | COC(C)CNC(=O)C1CCN(Cc2cccc(NC(=O)c3cccc(C(F)(F)F)n3)c2)CC1 (centres unmarked) [Example 2.093] | 6 nM
6 | O=C(Nc1cccc(CN2CCC(F)(C(=O)NC3CCCCC3)CC2)c1)c1cccc(C(F)(F)F)n1 [Example 4.008, 6-Trifluoromethyl-pyridine-2-carboxylic acid [3-(4-cyclohexylcarbamoyl-4-fluoro-piperidin-1-ylmethyl)-phenyl]-amide] | 71 nM
7 | CN(C(=O)C1CCN(Cc2cccc(NC(=O)c3cccs3)c2)CC1)C1CCCCC1 [Example 2.077] | 87 nM
8 | Cc1cncc(C(=O)Nc2cccc(CN3CCC(C(=O)N4C(C)CCC4C)CC3)c2)c1 (centres unmarked) [Example 2.051] | 96 nM
9 | O=C(Nc1cccc(CN2CCC(C(=O)NC3CC4CCC3C4)CC2)c1)c1ccc(Cl)cc1 (racemic) [Example 2.008] | 6 nM
10 | Cc1cncc(C(=O)Nc2cccc(CN3CCC(F)(C(=O)NC4CCCCC4)CC3)c2)c1 [Example 4.001, N-[3-(4-Cyclohexylcarbamoyl-4-fluoro-piperidin-1-ylmethyl)-phenyl]-5-methyl-nicotinamide] | 46 nM
11 | O=C(Nc1cccc(CN2CCC(C(=O)NCc3nccs3)CC2)c1)c1ccc(Cl)cc1 [Example 2.024] | 32 nM
12 | N-[3-(4-Cyclopropylcarbamoyl-piperidin-1-ylmethyl)-phenyl]-6-methyl-nicotinamide [Example 1.202] | 145 nM
13 | Cc1cncc(C(=O)Nc2cccc(CN3CCC(C(=O)N4CCCCCC4)CC3)c2)c1 [Example 2.048] | 19 nM
14 | Cc1cncc(C(=O)Nc2cccc(CN3CCC(C(=O)NC4CCCC4)C3)c2)c1 (centres unmarked) [Example 2.062] | 28 nM
15 | Cc1cncc(C(=O)Nc2cccc(CN3CCC(C(=O)NC4CCC(F)(F)CC4)CC3)c2)c1 [Example 2.044] | 27 nM
16 | Cc1cncc(C(=O)Nc2cccc(CN3CCC(C(=O)N4CCC(C)(C)C4)CC3)c2)c1 [Example 2.061] | 64 nM
17 | Cc1cncc(C(=O)Nc2cc(CN3CCC(C(=O)NC(C)(C)C)CC3)cs2)c1 [Example 3.012, N-[4-(4-tert-Butylcarbamoyl-piperidin-1-ylmethyl)-thiophen-2-yl]-5-methyl-nicotinamide] | 44 nM
18 | O=C(Nc1cccc(CN2CCC(C(=O)NCC3CCCC3)CC2)c1)c1ccc(Cl)cc1 [Example 2.010] | 4 nM
19 | CC(C)(C)NC(=O)C1CCN(Cc2csc(NC(=O)c3ccc(F)cc3)c2)CC1 [Example 3.008, 1-[5-(4-Fluoro-benzoylamino)-thiophen-3-ylmethyl]-piperidine-4-carboxylic acid tert-butylamide] | 3 nM
20 | Cc1cncc(C(=O)Nc2cccc(CN3CCC(C(=O)NC4(C#N)CC4)CC3)c2)c1 [Example 2.045] | 402 nM
21 | CC(C)CCNC(=O)C1CCN(Cc2cccc(NC(=O)c3cccc(C(F)(F)F)n3)c2)CC1 [Example 2.081] | 5 nM
22 | O=C(Nc1cccc(CN2CCC(C(=O)NC3CCC(F)(F)CC3)CC2)c1)c1ccc(Cl)cc1 [Example 2.014] | 2 nM
23 | O=C(Nc1cccc(CN2CCC(C(=O)NCc3cccnc3)CC2)c1)c1ccc(Cl)cc1 [Example 2.023] | 162 nM
24 | O=C(Nc1cccc(CN2CCCC(C(=O)NCC3CC3)CC2)c1)c1cccc(C(F)(F)F)n1 (racemic) [Example 2.089] | 36 nM

Row | Compound | EC50
25 | O=C(Nc1cccc(CN2CCC(C(=O)NCc3ccc(Cl)cc3)CC2)c1)c1ccc(Cl)cc1 [Example 2.029] | 433 nM
26 | O=C(Nc1cccc(CN2CCC(C(=O)NC3CCCCC3)CC2)c1)c1cccnc1 [Example 1.003, N-[3-(4-Cyclohexylcarbamoyl-piperidin-1-ylmethyl)-phenyl]-nicotinamide] | 23 nM
27 | Cc1cncc(C(=O)Nc2cccc(CN3CCC(C(=O)N4CCCCC4)CC3)c2)c1 [Example 2.046] | 6 nM
28 | CCCCNC(=O)C1CCN(Cc2cccc(NC(=O)c3cccc(C(F)(F)F)n3)c2)CC1 [Example 2.095] | 2 nM
29 | COc1cncc(C(=O)Nc2cccc(CN3CCC(C(=O)N(C)CC(C)C)CC3)c2)c1 [Example 4.015, N-{3-[4-(Isobutyl-methyl-carbamoyl)-piperidin-1-ylmethyl]-phenyl}-5-methoxy-nicotinamide] | 19 nM
30 | O=C(Nc1ccnc(CN2CCC(C(=O)NC3CCCCC3)CC2)c1)c1ccc(F)cc1 [Example 3.006, 1-[4-(4-Fluoro-benzoylamino)-pyridin-2-ylmethyl]-piperidine-4-carboxylic acid cyclohexylamide] | 56 nM
31 | O=C(Nc1cccc(CN2CCC(C(=O)NCc3ccccc3)CC2)c1)c1cccs1 [Example 2.076] | 780 nM
32 | CC(C)(C)NC(=O)C1(C)CCN(Cc2cccc(NC(=O)c3cccc(C(F)(F)F)n3)c2)CC1 [Example 4.011, 6-Trifluoromethyl-pyridine-2-carboxylic acid [3-(4-tert-butylcarbamoyl-4-methyl-piperidin-1-ylmethyl)-phenyl]-amide] | 13 nM
33 | Cc1cncc(C(=O)Nc2cccc(CN3CCC(C(=O)N4CCC(F)(F)CC4)CC3)c2)c1 [Example 2.049] | 300 nM
34 | Cc1cncc(C(=O)Nc2cccc(CN3CCC(C(=O)N(C)CC(C)C)CC3)c2)c1 [Example 2.057] | 8 nM
35 | 1-{4-Chloro-3-[(2-phenyl-cyclopropanecarbonyl)-amino]-benzyl}-piperidine-4-carboxylic acid cyclohexylamide [Example 1.161] | 26 nM
36 | Cc1cncc(C(=O)Nc2cccc(CN3CCC(C(=O)N4CCCC4)CC3)c2)c1 [Example 2.047] | 67 nM
37 | COCCN(C)C(=O)C1CCN(Cc2cccc(NC(=O)c3cncc(C)c3)c2)CC1 [Example 2.058] | 224 nM
38 | Cc1cncc(C(=O)Nc2cccc(CN3CCC(C(=O)N4CCCC4(C)C)CC3)c2)c1 [Example 2.060] | 10 nM
39 | CC(C)(C)CCNC(=O)C1CCN(Cc2cccc(NC(=O)c3cccc(C(F)(F)F)n3)c2)CC1 [Example 2.082] | 121 nM
40 | 5-Chloro-N-[4-chloro-3-(4-cyclopentylcarbamoyl-piperidin-1-ylmethyl)-phenyl]-nicotinamide [Example 1.227] | 0.6 nM
41 | O=C(Nc1cccc(CN2CCC(C(=O)N[C@H](CO)C3CCCCC3)CC2)c1)c1cccc(C(F)(F)F)n1 [Example 2.066] | 431 nM
42 | Cc1cncc(C(=O)Nc2cccc(CN3CCC(C(=O)N(C)C)CC3)c2)c1 [Example 2.055] | 60 nM
43 | O=C(Nc1cc(CN2CCC(C(=O)NC3CCCCC3)CC2)ccn1)c1ccc(Cl)cc1 [Example 3.002, 1-[2-(4-Chloro-benzoylamino)-pyridin-4-ylmethyl]-piperidine-4-carboxylic acid cyclohexylamide] | 57 nM
44 | CC(C)(C)NC(=O)C1CCCN(Cc2cccc(NC(=O)c3cccc(C(F)(F)F)n3)c2)CC1 (racemic) [Example 2.086] | 10 nM
45 | O=C(Nc1ccc(F)c(CN2CCC(C(=O)NC3CCCCC3)CC2)c1)c1cccc(C(F)(F)F)n1 [Example 4.016, 6-Trifluoromethyl-pyridine-2-carboxylic acid [3-(4-cyclohexylcarbamoyl-piperidin-1-ylmethyl)-4-fluoro-phenyl]-amide] | 3 nM
46 | O=C(Nc1cccc(CN2CCC(C(=O)NC3CCCC3)CC2)c1)c1ccc(Cl)cc1 [Example 2.001, 1-[3-(4-Chloro-benzoylamino)-benzyl]-piperidine-4-carboxylic acid cyclopentylamide] | 0.9 nM
47 | CC1(C(=O)NC2CCCCC2)CCN(Cc2cccc(NC(=O)c3cccc(C(F)(F)F)n3)c2)CC1 [Example 4.010, 6-Trifluoromethyl-pyridine-2-carboxylic acid [3-(4-cyclohexylcarbamoyl-4-methyl-piperidin-1-ylmethyl)-phenyl]-amide] | 57 nM
